# What was measured:
# [1] = Pharmacokinetics following oral administration to rats; type: in vivo, male Sprague Dawley rats; conditions: rat, oral 50 mg/kg in 0.5% CMC; for Brain AUC_D_obs / Brain Cmax_D / Plasma AUC_D_obs / Plasma Cmax_D: dose-normalized
# Method: Adult male Sprague Dawley rats (275-325 g, Charles River Laboratories, Saint Constant, Quebec) were orally dosed with 50 mg/kg of test compound (Apo7323, Apo7433, Apo7435 or Apo7448) suspended in 0.5% carboxymethylcellulose (CMC) in water. For each test compound, samples were obtained from the plasma and brain of three animals per time point, at 0 (dosed with 0.5% CMC), 0.25, 0.5, 1, 2, 4, 8 and 12 h following administration. The concentration of the compound in rat plasma and brain samples was determined by HPLC-UV. Pharmacokinetic parameters were computed using the PKPlus Module in GastroPlus® ver. 8.0 (Simulations Plus Inc., Lancaster, Calif.). Calculation method: linear trapezoidal with linear interpolation.
# [2] = pKa determination by potentiometric titration; type: physicochemical
# Method: The pKa values of ligands were determined by potentiometric titration when a ligand concentration >1×10^−2 M in water could be prepared. In a typical experiment, the sample solution (1.00×10^−2 M) was prepared by the following method: Apo7041 (125.4 mg) was weighed into a 50 mL volumetric flask, and about 40 mL of 0.1 M NaCl was added. The mixture was sonicated for 10 min to give a clear colorless solution. More of the 0.1 M NaCl was added to volume and the resulting solution was vortexed to mix. 40 mL of the solution was transferred into a T70 titration cell by using a 10 mL digital pipet A 6.000 N sodium hydroxide solution (127 μL, 1.9 equiv) was added, and the pH (11.82) of the solution was recorded. The solution was allowed to equilibrate at 22° C. for 5 min.
# The solution was then titrated against a 6.000 N hydrochloric acid solution at 22° C. by using a Mettler Toledo T70 autotitrator, until the pH reached 1.5. The volume of acid added and the pH reading were recorded. Thus, 501 measurements were taken for this experiment.
# The data set of pH vs. acid volume was analyzed using Hyperquad 2000 software (version 2.1, Peter Gans, University of Leeds). The pKa values were obtained using the model: L^−+H^+⇄LH (pKa1), LH+H^+⇄LH2^+, and LH2^++H^+⇄LH3^2+ (pKa3).
# The pKa values of Apo7041 in the same mixed solvent were also determined by potentiometric titration using the procedure described in Example 1.
# [3] = Stepwise formation constants for Zn-ligand system by potentiometric titration; type: physicochemical; conditions: for pZn^2+: pH 7.4, ligand 10 μM, metal 1 μM
# Method: In a typical experiment, the sample solution was prepared by the following method: Apo7041 (126.3 mg, 0.50 mmol) was weighed into a 50 mL volumetric flask, and about 35 mL of a mixed solvent (0.1 M NaCl aqueous:MeOH, 1:1, v:v) was added. The mixture was sonicated for 10 min to give a clear colorless solution. The zinc stock solution (atomic absorption standard, Aldrich, 6.64 mL, 0.10 mmol) was pipetted into the solution followed by addition of sodium hydroxide solution (6.000 N, 300 μL). More of the mixed solvent was added to volume and the resulting solution was vortexed to mix. The molar ratio between the total zinc and the total Apo7041 was 1/5. 40 mL of the solution was transferred into a T70 titration cell by using a 10 mL digital pipet. A 6.000 N sodium hydroxide solution (160 μL) was added, and the pH (11.95) of the solution was recorded. The solution was allowed to equilibrate at 22° C. for 5 min.
# The solution was then titrated against a 6.000 N hydrochloric acid solution at 22° C. by using a Mettler Toledo T70 autotitrator, until the pH reached 1.5. The volume of acid added and the pH reading were recorded. Thus, 523 measurements were taken for this experiment.
# The data set of pH vs. acid volume for Zn-Apo7041 system was analyzed using Hyperquad 2000 software (version 2.1, Peter Gans, University of Leeds). The formation constants for Zn-Apo7041 system were optimized using the model shown in the first column of the table 29D. The results are shown in the second and third column.
# pM^n+ is defined as −log [M(H2O)m]^n+ at physiological conditions, i.e.: pH 7.4, a ligand concentration of 10 μM, and a metal concentration of 1 μM. To calculate pM^n+ for a MLn system, βn and pKa values are needed (βn are the formation constants for M^n++n L^−⇄MLn; pKa are the equilibrium constants for L^−+n H^+⇄LHn^(n-1)+). The pM^n+ is calculated using the HySS software (HYSS© 2000 Protonic Software).
# [4] = pKa determination by potentiometric titration; type: physicochemical; conditions: 0.1M aqueous NaCl/MeOH, 1/1, v/v
# [5] = Distribution coefficient determination, D7.4 (1-octanol / K2HPO4 buffer); type: physicochemical; conditions: 1-octanol / K2HPO4 buffer 50 mM pH 7.4
# Method: K2HPO4 buffer (50 mM, pH=7.4) and 1-octanol were used as the aqueous phase and the organic phase, respectively. The K2HPO4 buffer and 1-octanol were mixed, and pre-saturated with each other before use.
# In a typical experiment, an aqueous solution of Apo6995 (3-hydroxy-2-methyl-1-(2,2,2-trifluoroethyl)pyridin-4(1H)-one) was prepared by weighing out 3 mg of the compound into a 10-mL test-tube. It was then mixed with K2HPO4 buffer (2 mL) and sonicated for 30 minutes with frequent vortexing. The solution was then filtered through HPLC syringe filter (4 mm PVDF syringe filter 0.45 μM) to obtain the aqueous solution.
# One mL of this aqueous solution was pipetted out into another 10-mL test-tube and mixed with 1 mL of 1-octanol. The mixture was then vortexed for 1 hour. The solution was centrifuged at 2000 rpm for 10 minutes. A small amount of the lower aqueous layer was carefully pipetted out and analyzed by HPLC to obtain the peak height (HF). The distribution coefficient, D7.4, was calculated using the following equation: D7.4=(HI−HF)/HF.
# [6] = 0.1M aqueous NaCl/MeOH, 1/1, v/v
# [7] = 0.1M aqueous NaCl/MeOH, 1/1, v/v, listed as drawing 104
# [8] = potentiometric, 0.1 M NaCl, 22° C.
# [9] = 0.1M aqueous NaCl (Table 1, Fe3+ chelation, footnote b)
SMILES,CL [1] [mL/min/kg],Brain AUC_D_obs [1] [kg·µg·h/mL/mg],Brain Cmax_D [1] [kg·µg/mL/mg],Plasma AUC_D_obs [1] [kg·µg·h/mL/mg],Plasma Cmax_D [1] [kg·µg/mL/mg],"Log β120 (Zn2+) [3, 6]",pZn^2+ [3],pKa1 [4],pKa2 [4],D7.4 [5],also measured
"Cc1c(O)c(=O)c(C(N2CCOCC2)C(F)(F)F)cn1C (stereo not shown) [Apo7435, 3-hydroxy-1,2-dimethyl-5-(2,2,2-trifluoro-1-morpholinoethyl)pyridin-4(1H)-one]",110,0.122,0.102,0.516,0.312,,,,,,
"CN(C)C(c1c(O)c(=O)ccn1C)C(F)(F)F (stereo not shown) [Apo7041, 2-[1-(dimethylamino)-2,2,2-trifluoroethyl]-3-hydroxy-1-methylpyridin-4(1H)-one]",,,,,,13.2,pZn^2+ = 6.0,10.1,pKa2 = 3.2,,"pKa1 + pKa2 ([2]; 0.1 M NaCl): 12.91; pKa1 + pKa2 + pKa3 ([2]; 0.1 M NaCl): 14.57; pKa1 + pKa2 + pKa3 [2, 6]: 15.3; pKa3 [2, 6]: pKa3 = 2.0; pKa1 [2, 7]: pKa1 = 10.1; pKa1 [2, 8]: 9.39; pKa2 [2, 8]: 3.52; pKa3 [2, 8]: 1.66; Log β111 (Zn2+) [3, 6]: 13.1; Log β121 (Zn2+) [3, 6]: 19.6; Log β111 (Zn2+) [3, 7]: Logβ111 = 13.1; Log β120 (Zn2+) [3, 7]: Logβ120 = 13.2; Log β121 (Zn2+) [3, 7]: Logβ121 = 19.6; pKa1 + pKa2 [4]: 13.3"
"O=c1ccn(CC(F)(F)F)c(CN2CCOCC2)c1O [Apo7323, 3-hydroxy-2-(morpholinomethyl)-1-(2,2,2-trifluoroethyl)pyridin-4(1H)-one]",33.2,1.010,0.218,1.630,0.400,,,,,,
"CN(C)Cc1c(O)c(=O)ccn1CC(F)(F)F [Apo7067, 2-[(dimethylamino)methyl]-3-hydroxy-1-(2,2,2-trifluoroethyl)pyridin-4(1H)-one]",,,,,,,,,,2.82,logD ([5]; read-out: Log D7.4): 0.45
"Cc1c(O)c(=O)ccn1C [Deferiprone, 3-hydroxy-1,2-dimethylpyridin-4(1H)-one, reference compound]",,,,,,15.0,pZn^2+ = 6.3,pKa1 = 10.6,pKa2 = 4.0,0.17,"pKa1 [2, 9]: pKa1 = 9.92; pKa2 [2, 9]: pKa2 = 3.55; Logβ1 (Zn2+) [3, 6]: Logβ1 = 8.1; Logβ2 (Zn2+) [3, 6]: Logβ2 = 15.0; Log D7.4 [5]: −0.77"

# From patent publication US9938240B2, “Fluorinated derivatives of 3-hydroxypyridin-4-ones” (Apotex Technologies Inc., priority 2009, dated 2018)
